Experimental data from the Kinase Knowledgebase extract (Sharma et al. 2016).

Tests used:
[1] = target: EGFR (human), P00533 [Inhibition of EGFR(L858RT/790M) Kinase Activity]
[2] = target: EGFR (human), P00533 [WT]
[3] = target: EGFR (human) (UniProt P00533); settings: hcc827
EGFR (human), sequence (P00533 whole entry, looked up): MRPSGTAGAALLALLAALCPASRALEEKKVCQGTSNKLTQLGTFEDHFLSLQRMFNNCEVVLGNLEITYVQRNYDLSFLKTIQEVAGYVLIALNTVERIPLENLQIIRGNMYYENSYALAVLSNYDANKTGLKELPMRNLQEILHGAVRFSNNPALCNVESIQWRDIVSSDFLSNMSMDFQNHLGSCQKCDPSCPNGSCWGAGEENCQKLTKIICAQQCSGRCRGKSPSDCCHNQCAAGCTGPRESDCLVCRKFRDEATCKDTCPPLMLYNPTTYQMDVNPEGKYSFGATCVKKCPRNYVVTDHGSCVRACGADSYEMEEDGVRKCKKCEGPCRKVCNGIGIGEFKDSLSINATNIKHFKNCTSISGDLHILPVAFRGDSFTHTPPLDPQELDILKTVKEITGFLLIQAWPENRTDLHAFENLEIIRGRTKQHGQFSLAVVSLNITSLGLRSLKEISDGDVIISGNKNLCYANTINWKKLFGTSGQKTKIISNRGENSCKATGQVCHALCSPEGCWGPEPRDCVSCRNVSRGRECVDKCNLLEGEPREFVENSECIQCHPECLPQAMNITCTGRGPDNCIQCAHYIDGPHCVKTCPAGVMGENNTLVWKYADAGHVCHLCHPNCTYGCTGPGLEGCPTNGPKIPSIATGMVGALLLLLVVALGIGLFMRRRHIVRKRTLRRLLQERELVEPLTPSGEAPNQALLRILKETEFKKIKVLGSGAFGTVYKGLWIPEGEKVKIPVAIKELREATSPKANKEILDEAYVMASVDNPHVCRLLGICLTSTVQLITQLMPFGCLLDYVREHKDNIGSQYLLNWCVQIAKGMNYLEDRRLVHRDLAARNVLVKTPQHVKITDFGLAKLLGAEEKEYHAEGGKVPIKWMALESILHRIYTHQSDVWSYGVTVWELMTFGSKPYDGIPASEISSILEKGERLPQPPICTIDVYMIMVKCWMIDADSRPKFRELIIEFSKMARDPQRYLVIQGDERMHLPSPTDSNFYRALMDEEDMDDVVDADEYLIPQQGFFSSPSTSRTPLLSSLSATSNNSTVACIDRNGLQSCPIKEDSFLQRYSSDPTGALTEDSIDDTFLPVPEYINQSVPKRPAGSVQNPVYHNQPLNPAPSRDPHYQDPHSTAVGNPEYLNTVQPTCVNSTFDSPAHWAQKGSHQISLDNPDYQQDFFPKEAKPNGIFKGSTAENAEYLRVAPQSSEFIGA

EGFR (human), P00533 [Inhibition of EGFR(L858RT/790M) Kinase Activity], sequence (P00533 whole entry, looked up, change not shown): as the sequence (P00533 whole entry, looked up) above
EGFR (human), P00533 [WT], sequence (P00533 whole entry, looked up): as above

| SMILES | IC50 [1] [nM] | IC50 [2] [nM] | IC50 [3] [nM] |
| --- | --- | --- | --- |
| CC#CC(=O)Nc1cccc(-c2c(-c3ccccc3)oc3ncnc(N[C@H](CO)c4ccccc4)c23)c1 | 500 to 2500 | < 59 | 1 to 99 |
| CC[C@@H](Nc1ncnc2sc3c(c12)CCN(C(=O)/C=C/CN(CC)CC)C3)c1ccccc1 | 500 to 2500 | < 59 | 1 to 99 |
| CN1CCN(C/C=C/C(=O)N2CCc3c(sc4ncnc(N[C@H](CO)c5ccccc5)c34)C2)CC1 | 500 to 2500 | < 59 | 1 to 99 |
| C=CC(=O)N1CCc2c(sc3ncnc(N[C@H](COCc4cccc(OC)c4)c4ccccc4)c23)C1 | 10 to 499 | < 59 | 1 to 99 |
| C=CC(=O)N1CCc2c(sc3ncnc(N[C@H](COCc4cccc(F)c4)c4ccccc4)c23)C1 | 10 to 499 | < 59 | 1 to 99 |
| CNC/C=C/C(=O)N1CCc2c(sc3ncnc(N[C@H](C)c4ccccc4)c23)C1 | 500 to 2500 | < 59 | 1 to 99 |
| C=CC(=O)N1CCc2c(sc3ncnc(N[C@H](CO)c4ccccc4)c23)C1 | 10 to 499 | < 59 | 1 to 99 |
| C=CC(=O)N1CCc2c(sc3ncnc(N[C@H](COCc4ccccc4)c4ccccc4)c23)C1 | 10 to 499 | < 59 | 1 to 99 |
| CCN(CC)C/C=C/C(=O)N1CCc2c(sc3ncnc(N[C@H](CO)c4ccccc4)c23)C1 | 500 to 2500 | < 59 | 1 to 99 |
| CN(C)C/C=C/C(=O)Nc1cccc(-c2c(-c3ccccc3)oc3ncnc(N[C@H](CO)c4ccccc4)c23)c1 | 10 to 499 | < 59 | 1 to 99 |
| C=CC(=O)N1CCc2c(sc3ncnc(N[C@H](COCc4ccc(C(F)(F)F)cc4)c4ccccc4)c23)C1 | 10 to 499 | < 59 | 100 to 300 |
| CN(C)C/C=C/C(=O)N1CCc2c(sc3ncnc(N[C@H](CO)c4ccccc4)c23)C1 | 10 to 499 | < 59 | 1 to 99 |
| C=CC(=O)Nc1cccc(-c2c(-c3ccccc3)oc3ncnc(N[C@H](C)c4ccccc4)c23)c1 | 500 to 2500 | 101 to 900 | 1 to 99 |
| C=CC(=O)N1CCc2c(sc3ncnc(N[C@H](COCc4cccc([N+](=O)[O-])c4)c4ccccc4)c23)C1 | 10 to 499 | < 59 | 1 to 99 |
| C=CC(=O)N1CCc2c(sc3ncnc(N[C@H](CO)Cc4ccccc4)c23)C1 | 500 to 2500 | < 59 | 301 to 999 |
| COc1cccc(COC[C@@H](Nc2ncnc3sc4c(c23)CCN(C(=O)/C=C/CN(C)C)C4)c2ccccc2)c1 | 500 to 2500 | < 59 | 1 to 99 |
| C[C@@H](Nc1ncnc2sc3c(c12)CCN(C(=O)/C=C/CNC1CC1)C3)c1ccccc1 | 500 to 2500 | < 59 | 1 to 99 |
